Where two headings read alike, the source gives them in different places.
What was measured:
horse serum BChE [1] = target: T1, horse serum BChE (Equus caballus, UniProt P81908); assay: Kinetic analysis of BChE inhibition (Dixon and Lineweaver−Burk plots); type: biochemical; conditions: for Inhibition type BChE: Dixon and Lineweaver−Burk plots
T1 construct: horse serum BChE (EC 3.1.1.8); purchased Sigma-Aldrich Co; host or cells: horse serum
Protocol: (§1) The Ki was determined by interpretation of the Dixon plot, with the value of the x-axis intercept taken as −Ki.
Dixon plots for BChE inhibition by pterosin derivatives. (2S,3R)-Pterosin C (A), (2R,3R)-pterosin C (B), and (2R)-pterosin B (C) were tested in the presence of substrate concentrations of 0.2 mM (●), 0.4 mM (○), and 0.8 mM (▼).
Dixon plots for BChE inhibition by pteroside derivatives. (2R)-pteroside B (A), (2R,3R)-pteroside C (B), and (3S)-pteroside D (C) were tested in the presence of substrate concentrations of 0.2 mM (●), 0.4 mM (○), and 0.8 mM (▼). Lineweaver-Burk plots for BChE inhibition were generated with inhibitor concentrations of 0 µM (Δ), 4 µM (▼), 20 µM (○), and 100 µM (●) for (2R)-pteroside B (D); 0 µM (Δ), 0.8 µM (▼), 4 µM (○), and 20 µM (●) for (2R,3R)-pteroside C (E) and (3S)-pteroside D (F).

Electric eel AChE [2] = target: T2, Electric eel AChE (Electrophorus electricus, UniProt O42275); assay: In vitro cholinesterase enzyme assay (Ellman), AChE; type: biochemical
T2 construct: purchased Sigma-Aldrich Co
T2 sequence (O42275 24-633): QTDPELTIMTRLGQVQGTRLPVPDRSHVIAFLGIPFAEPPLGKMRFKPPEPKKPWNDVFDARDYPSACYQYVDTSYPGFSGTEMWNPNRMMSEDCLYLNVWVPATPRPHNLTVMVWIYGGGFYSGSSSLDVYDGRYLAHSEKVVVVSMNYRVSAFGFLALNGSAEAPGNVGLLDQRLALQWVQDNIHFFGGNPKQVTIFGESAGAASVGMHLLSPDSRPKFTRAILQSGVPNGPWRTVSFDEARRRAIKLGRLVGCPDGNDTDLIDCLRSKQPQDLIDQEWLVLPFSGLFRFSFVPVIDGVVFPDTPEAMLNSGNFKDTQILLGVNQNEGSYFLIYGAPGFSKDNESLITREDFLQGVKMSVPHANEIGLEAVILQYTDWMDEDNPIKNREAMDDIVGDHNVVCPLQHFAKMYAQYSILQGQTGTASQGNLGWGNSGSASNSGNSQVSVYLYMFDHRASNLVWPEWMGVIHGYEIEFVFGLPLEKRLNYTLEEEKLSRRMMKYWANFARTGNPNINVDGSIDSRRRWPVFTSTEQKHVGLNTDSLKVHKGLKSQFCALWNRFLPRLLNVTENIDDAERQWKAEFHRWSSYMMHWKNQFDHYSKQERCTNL

B16F10 mouse melanoma = assay: MTT cytotoxicity assay, B16F10; type: cell-based; conditions: 24 h
Protocol: (§2) Cytotoxicity was assessed using the MTT assay. Briefly, the cells were seeded into a 96-well plate at a density of 1×10^5 cells per well in 100 µL of corresponding media and incubated at 37 °C in an incubator under 5% CO2 tension for 24 h. The culture media were then replaced with 100 µL of fresh serum-free media in the presence of varied concentrations of pterosin derivatives, and cells were incubated for an additional 24 h. The control was treated with an equal amount of DMSO present in the assay for a 5 mM concentration. Then, 100 µL of MTT solution (0.5 mg/mL in Phosphate Buffered Saline (PBS)) was added to each culture. To measure the proportion of surviving cells, the media were replaced with 100 µL of DMSO 2 h after the administration of MTT solution. The absorbance was measured at 570 nm using a spectrophotometric plate reader (Molecular Devices, Sunnyvale, CA, USA).

[3] = system: SH-SY5Y human neuroblastoma; assay: MTT cytotoxicity assay, SH-SY5Y; type: cell-based; conditions: 24 h
Protocol: as §2

[4] = system: NIH3T3 mouse embryo fibroblasts; assay: MTT cytotoxicity assay, NIH3T3; type: cell-based; conditions: 24 h
Protocol: as §2

Electric eel AChE [5] = target: T2, Electric eel AChE; assay: Kinetic analysis of AChE inhibition (Dixon and Lineweaver−Burk plots); type: biochemical; conditions: for Inhibition type AChE: Dixon and Lineweaver−Burk plots
Protocol: as §1
Dixon plots for AChE inhibition by pterosin derivatives. (2S,3R)-Pterosin C (A), (2R,3R)-pterosin C (B), and (2R)-pterosin B (C) were tested in the presence of substrate concentrations of 0.1 mM (●), 0.3 mM (○), and 0.6 mM (▼). Lineweaver-Burk plots for AChE inhibition were generated with inhibitor concentrations of 0 µM (Δ), 4 µM (▼), 20 µM (○), and 100 µM (●) for (2S,3R)-pterosin C (D) and (2R,3R)-pterosin C (E); and 0 µM (Δ), 2 µM (▼), 10 µM (○), and 50 µM (●) for (2R)-pterosin B (F).
Dixon plots for AChE inhibition by pteroside derivatives. (2R)-pteroside B (A), (2R,3R)-pteroside C (B), and (3S)-pteroside D (C) were tested in the presence of substrate concentrations of 0.1 mM (●), 0.3 mM (○), and 0.6 mM (▼). Lineweaver-Burk plots for AChE inhibition were generated with inhibitor concentrations of 0 µM (Δ), 0.8 µM (▼), 4 µM (○), and 20 µM (●) for (2R)-pteroside B (D), (2R,3R)-pteroside C (E), and (3S)-pteroside D (F).

horse serum BChE [6] = target: T1, horse serum BChE; assay: In vitro cholinesterase enzyme assay (Ellman), BChE; type: biochemical
Excerpt: BACE1 (human recombinant β-secretase) ([…]) and the BACE1 FRET (fluorescence resonance energy transfer) assay kit Red were purchased from ThermoFisher Scientific (P2985; Waltham, MA, USA). […] For the cell culture experiment, Dulbecco’s modified Eagle’s medium (DMEM), Opti-MEM, fetal bovine serum (FBS), and penicillin/streptomycin were obtained from Capricorn Scientific (Ebsdorfergrund, Germany). β-secretase inhibitor III (β-SI) was purchased from Calbiochem (Darmstadt, Germany). The protease inhibitor mixture (a mixture of AEBSF, pepstatin A, E-64, bestain, leupeptin, and aprotinin) was purchased from Sigma-Aldrich (St. Louis, MO, USA). Enzyme-linked immunosorbent assay (ELISA) kits for Aβ40 and Aβ42 were obtained from IBL (Kunma, Japan). All chemicals and solvents used were reagent grade, purchased from commercial sources, and used as received.
The inhibitory activities of pterosin derivatives against cholinesterases were measured using the method developed by Ellman et al.[32]. The reaction mixture contained 140 μL of sodium phosphate buffer (pH 8.0), 20 μL of test sample solution (final concentration of the compound 100 μM), and 20 μL of AChE or BChE solution, mixed and incubated for 15 min at room temperature. […] The reactions were initiated following the addition of 10 μL of DTNB and 10 μL of acetyl thiocholine iodide for the AChE assay or butyryl thiocholine chloride for the BChE assay in 96-well microplates, which were incubated for 15 min.

T1 sequence (P81908 whole entry): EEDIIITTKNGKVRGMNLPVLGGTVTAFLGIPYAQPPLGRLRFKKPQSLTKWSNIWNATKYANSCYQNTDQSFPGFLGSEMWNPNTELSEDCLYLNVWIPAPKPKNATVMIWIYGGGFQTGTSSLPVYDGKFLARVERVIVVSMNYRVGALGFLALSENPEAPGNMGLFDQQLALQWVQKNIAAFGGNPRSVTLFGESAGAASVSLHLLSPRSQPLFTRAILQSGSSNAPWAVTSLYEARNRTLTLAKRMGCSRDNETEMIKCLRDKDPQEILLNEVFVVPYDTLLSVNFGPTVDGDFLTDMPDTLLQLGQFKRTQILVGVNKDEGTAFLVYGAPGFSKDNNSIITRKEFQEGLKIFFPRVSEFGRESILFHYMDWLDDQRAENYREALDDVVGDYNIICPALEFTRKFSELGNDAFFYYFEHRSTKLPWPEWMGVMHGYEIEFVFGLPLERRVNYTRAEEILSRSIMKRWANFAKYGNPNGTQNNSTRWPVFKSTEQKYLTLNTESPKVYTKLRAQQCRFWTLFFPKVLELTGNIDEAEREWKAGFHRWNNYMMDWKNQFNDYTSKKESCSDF

Compound	Ki (horse serum BChE [1])	Inhibition type BChE (horse serum BChE [1])	IC50 (Electric eel AChE [2])	AChE-inhibitory activity fold lower than berberine (Electric eel AChE [2]; ratio of IC50)	LD50 Based on MTT Assay, B16F10 (B16F10 mouse melanoma)	LD50 Based on MTT Assay, SY-SY5Y [3]	LD50 Based on MTT Assay, NIH3T3 [4]	Ki (Electric eel AChE [5])	Inhibition type AChE (Electric eel AChE [5])	IC50 (horse serum BChE [6])	BChE-inhibitory activity fold lower than berberine (horse serum BChE [6]; ratio of IC50)	Ki (horse serum BChE [1]; determined by Dixon plot, read-out: Ki BChE)	IC50 (Electric eel AChE [2]; mean ± S.D. of three experiments, read-out: IC50 AChE)	Ki (Electric eel AChE [5]; determined by Dixon plot, read-out: Ki AChE)	IC50 (horse serum BChE [6]; mean ± S.D. of three experiments, read-out: IC50 BChE)
Cc1cc2c(c(C)c1CCO)C(=O)[C@H](C)C2 [(2R)-Pterosin B, (2R)-pterosin B]	53.5 µM	Noncompetitive	16.2 ± 1 µM	approximately 40 fold	>5,000 µM	>5,000 µM	>5,000 µM	12.1 µM	Mixed-type	48.1 ± 0.59 µM	~15 fold				
Cc1cc2c(c(C)c1CCOC1OC(CO)C(O)C(O)C1O)C(=O)C(C)C2O [(2R,3R)-Pteroside C, (2R,3R)-pteroside C]		Mixed-type			>5,000 µM	>5,000 µM	>5,000 µM		Mixed-type			9.62 µM	3.77 ± 0.38 µM	8.13 µM	5.29 ± 0.82 µM

Reference: PMC6372667 (Experimental & Molecular Medicine, 2019)
